Holding throughout (format): functional
Test [1] concerns the target T1, Sentrin-specific protease 6 (Homo sapiens, UniProt Q9GZR1).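 Further: Luminescence-based dose-response confirmatory assay of SENP6 inhibition, following up an ultra-high-throughput screen.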
T1 sequence (Q9GZR1 whole entry): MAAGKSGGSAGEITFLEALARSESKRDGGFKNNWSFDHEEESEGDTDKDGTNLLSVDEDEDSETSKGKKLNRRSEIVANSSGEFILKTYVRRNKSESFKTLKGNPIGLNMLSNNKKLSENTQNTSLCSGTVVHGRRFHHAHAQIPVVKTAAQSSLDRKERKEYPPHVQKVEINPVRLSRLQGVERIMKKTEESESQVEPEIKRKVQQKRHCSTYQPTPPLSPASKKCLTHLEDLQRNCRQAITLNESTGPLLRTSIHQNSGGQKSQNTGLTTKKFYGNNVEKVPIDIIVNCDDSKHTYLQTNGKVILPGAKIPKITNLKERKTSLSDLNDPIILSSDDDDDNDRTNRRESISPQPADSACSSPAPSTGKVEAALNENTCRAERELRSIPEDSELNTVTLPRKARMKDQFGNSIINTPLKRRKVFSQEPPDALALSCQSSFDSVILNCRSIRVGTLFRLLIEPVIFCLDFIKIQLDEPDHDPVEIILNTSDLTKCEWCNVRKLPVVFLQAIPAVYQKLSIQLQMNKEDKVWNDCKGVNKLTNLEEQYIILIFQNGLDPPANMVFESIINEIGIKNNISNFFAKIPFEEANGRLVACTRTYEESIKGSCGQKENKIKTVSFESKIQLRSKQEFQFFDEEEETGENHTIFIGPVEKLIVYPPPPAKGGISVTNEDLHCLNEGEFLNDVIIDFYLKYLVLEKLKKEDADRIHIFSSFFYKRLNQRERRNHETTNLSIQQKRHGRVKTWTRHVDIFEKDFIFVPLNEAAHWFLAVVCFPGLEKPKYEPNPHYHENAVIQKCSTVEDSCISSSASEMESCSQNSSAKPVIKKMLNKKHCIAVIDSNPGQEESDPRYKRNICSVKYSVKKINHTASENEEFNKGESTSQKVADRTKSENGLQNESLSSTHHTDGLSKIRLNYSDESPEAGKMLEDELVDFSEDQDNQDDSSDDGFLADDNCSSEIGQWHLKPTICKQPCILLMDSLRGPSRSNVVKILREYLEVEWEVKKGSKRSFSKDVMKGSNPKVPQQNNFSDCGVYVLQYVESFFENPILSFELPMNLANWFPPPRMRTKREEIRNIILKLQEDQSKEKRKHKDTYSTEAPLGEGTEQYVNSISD

The target in test [2] is T2, Sentrin-specific protease 8 (Homo sapiens, UniProt Q96LD8).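 Further: kinetic enzyme assay of SENP8 cleaving a Nedd8 protein substrate, dose-response confirmation of screening hits.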
T2 sequence (Q96LD8 whole entry): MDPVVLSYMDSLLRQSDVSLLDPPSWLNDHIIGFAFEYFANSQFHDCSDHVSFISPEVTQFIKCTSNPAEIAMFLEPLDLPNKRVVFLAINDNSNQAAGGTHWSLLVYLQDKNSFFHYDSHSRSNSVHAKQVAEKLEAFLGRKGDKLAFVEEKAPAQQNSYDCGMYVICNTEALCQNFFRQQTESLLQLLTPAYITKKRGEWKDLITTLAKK

In test [3] the target is Ephrin type-A receptor 2 (Homo sapiens, UniProt P29317).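 Further: EPHA2 tested as one member of a kinome-wide kinase panel.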
In test [4] the target is Proto-oncogene tyrosine-protein kinase Src (Homo sapiens, UniProt P12931).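 Further: SRC entry within a kinome-wide kinase profiling panel.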
Test [5] concerns the target Protein-tyrosine kinase 6 (Homo sapiens, UniProt Q13882).
Test [6] has as its target Calcium/calmodulin-dependent protein kinase type II subunit gamma (Homo sapiens, UniProt Q13555).
Test [7] deals with Tyrosine-protein kinase ITK/TSK (Homo sapiens, UniProt Q08881).
For test [8], the target named is Insulin receptor (Homo sapiens, UniProt P06213).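 Further: insulin receptor kinase tested as one member of a kinome-wide kinase panel.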
Test [9] concerns the target Serine/threonine-protein kinase BRSK1 (Homo sapiens, UniProt Q8TDC3).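 Further: measured within a kinome-wide kinase panel, with the target listed as KIAA1811.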
Test [10] deals with Testis-specific serine/threonine-protein kinase 1 (Homo sapiens, UniProt Q9BXA7).
Test [11] addresses Mitogen-activated protein kinase 12 (Homo sapiens, UniProt P53778).
Test [12] concerns the target MAP kinase-interacting serine/threonine-protein kinase 2 (Homo sapiens, UniProt Q9HBH9).
For test [13], the target named is Interleukin-1 receptor-associated kinase 4 (Homo sapiens, UniProt Q9NWZ3).
The target of test [14] is Cyclin-dependent kinase 1 (Homo sapiens, UniProt P06493).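 Further: Kinome-wide panel profiling, with the target listed as panel member CDC2.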
Test [15] addresses RAC-alpha serine/threonine-protein kinase (Homo sapiens, UniProt P31749).
In test [16] the target is Serine/threonine-protein kinase D2 (Homo sapiens, UniProt Q9BZL6).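 Further: measured against PRKD2 as one member of a kinome-wide kinase profiling panel.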
The target of test [17] is Non-receptor tyrosine-protein kinase TYK2 (Homo sapiens, UniProt P29597).
In test [18] the target is Interleukin-1 receptor-associated kinase 1 (Homo sapiens, UniProt P51617).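 Further: IRAK1 tested as one member of a kinome panel.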
The target of test [19] is Casein kinase I isoform gamma-1 (Homo sapiens, UniProt Q9HCP0).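 Further: measured as the CSNK1G1 member of a kinome profiling panel.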
Test [20] concerns the target Cell division cycle 7-related protein kinase (Homo sapiens, UniProt O00311).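 Further: value obtained from a kinome-wide kinase panel.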
The target of test [21] is Mast/stem cell growth factor receptor Kit (Homo sapiens, UniProt P10721).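 Further: KIT entry within a kinase panel assay.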
For test [22], the target named is Mitogen-activated protein kinase 13 (Homo sapiens, UniProt O15264).
For test [23], the target named is Eukaryotic elongation factor 2 kinase (Homo sapiens, UniProt O00418).

These results are taken from ChEMBL document CHEMBL1201862, “PubChem BioAssay data set” (2004).

Each structure is given as a SMILES string. The source made the active and inactive calls.

Calcium/calmodulin-dependent protein kinase type II subunit gamma, sequence (Q13555 whole entry): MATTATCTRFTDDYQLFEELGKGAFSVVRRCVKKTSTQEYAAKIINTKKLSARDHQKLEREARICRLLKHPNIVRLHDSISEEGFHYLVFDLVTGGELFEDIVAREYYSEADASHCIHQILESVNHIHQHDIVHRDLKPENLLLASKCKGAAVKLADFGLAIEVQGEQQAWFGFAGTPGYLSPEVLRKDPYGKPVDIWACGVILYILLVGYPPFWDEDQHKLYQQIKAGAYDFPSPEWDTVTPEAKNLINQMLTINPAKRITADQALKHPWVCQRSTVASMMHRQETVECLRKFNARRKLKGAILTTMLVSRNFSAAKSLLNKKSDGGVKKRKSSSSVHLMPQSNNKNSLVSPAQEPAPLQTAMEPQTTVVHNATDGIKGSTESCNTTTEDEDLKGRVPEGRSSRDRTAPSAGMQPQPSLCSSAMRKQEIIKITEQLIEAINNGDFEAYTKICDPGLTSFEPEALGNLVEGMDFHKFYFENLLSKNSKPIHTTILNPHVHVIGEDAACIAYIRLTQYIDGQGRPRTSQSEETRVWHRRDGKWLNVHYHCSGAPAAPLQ
Mast/stem cell growth factor receptor Kit, sequence (P10721 whole entry): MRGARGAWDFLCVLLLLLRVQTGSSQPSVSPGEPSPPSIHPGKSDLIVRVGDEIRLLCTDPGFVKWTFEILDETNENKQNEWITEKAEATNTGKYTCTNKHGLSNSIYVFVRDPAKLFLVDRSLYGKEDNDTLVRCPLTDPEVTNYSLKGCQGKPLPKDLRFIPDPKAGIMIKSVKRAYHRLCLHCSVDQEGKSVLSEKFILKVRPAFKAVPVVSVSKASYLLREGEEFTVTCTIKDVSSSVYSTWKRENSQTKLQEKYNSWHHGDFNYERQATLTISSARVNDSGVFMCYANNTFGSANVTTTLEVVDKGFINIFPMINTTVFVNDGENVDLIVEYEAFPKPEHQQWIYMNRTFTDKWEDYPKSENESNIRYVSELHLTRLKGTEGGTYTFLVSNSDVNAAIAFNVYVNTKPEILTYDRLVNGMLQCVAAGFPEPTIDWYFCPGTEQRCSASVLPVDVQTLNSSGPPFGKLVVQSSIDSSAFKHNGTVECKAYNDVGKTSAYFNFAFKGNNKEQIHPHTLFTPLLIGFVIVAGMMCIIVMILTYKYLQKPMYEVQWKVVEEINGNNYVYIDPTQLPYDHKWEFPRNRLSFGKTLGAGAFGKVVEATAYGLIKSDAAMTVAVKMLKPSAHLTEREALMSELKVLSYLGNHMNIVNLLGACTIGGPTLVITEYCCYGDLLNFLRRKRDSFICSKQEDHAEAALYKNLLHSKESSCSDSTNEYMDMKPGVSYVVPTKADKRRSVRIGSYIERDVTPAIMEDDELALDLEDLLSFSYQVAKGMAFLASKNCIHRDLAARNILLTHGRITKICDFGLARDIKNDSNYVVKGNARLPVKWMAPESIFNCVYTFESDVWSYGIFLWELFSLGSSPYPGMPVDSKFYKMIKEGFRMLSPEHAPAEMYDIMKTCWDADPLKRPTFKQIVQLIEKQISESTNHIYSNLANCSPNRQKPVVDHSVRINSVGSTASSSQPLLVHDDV
Cyclin-dependent kinase 1, sequence (P06493 whole entry): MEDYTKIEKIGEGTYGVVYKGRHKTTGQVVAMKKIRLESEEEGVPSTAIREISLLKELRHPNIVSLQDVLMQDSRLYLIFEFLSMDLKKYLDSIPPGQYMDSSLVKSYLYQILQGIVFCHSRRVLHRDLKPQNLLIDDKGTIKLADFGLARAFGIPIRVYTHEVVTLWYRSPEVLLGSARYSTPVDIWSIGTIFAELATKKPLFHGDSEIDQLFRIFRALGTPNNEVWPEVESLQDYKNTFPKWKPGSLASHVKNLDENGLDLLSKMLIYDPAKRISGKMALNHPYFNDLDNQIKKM
Mitogen-activated protein kinase 13, sequence (O15264 whole entry): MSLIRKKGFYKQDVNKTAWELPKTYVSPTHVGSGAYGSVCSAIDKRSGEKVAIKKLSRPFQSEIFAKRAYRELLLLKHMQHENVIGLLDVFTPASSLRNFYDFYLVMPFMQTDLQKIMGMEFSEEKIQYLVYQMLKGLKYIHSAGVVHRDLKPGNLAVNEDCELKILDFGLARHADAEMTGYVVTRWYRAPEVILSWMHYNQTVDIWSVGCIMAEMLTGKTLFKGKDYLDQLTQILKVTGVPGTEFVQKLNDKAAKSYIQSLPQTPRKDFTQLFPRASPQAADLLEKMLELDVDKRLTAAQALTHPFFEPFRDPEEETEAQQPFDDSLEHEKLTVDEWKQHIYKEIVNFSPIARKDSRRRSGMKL
Protein-tyrosine kinase 6, sequence (Q13882 whole entry): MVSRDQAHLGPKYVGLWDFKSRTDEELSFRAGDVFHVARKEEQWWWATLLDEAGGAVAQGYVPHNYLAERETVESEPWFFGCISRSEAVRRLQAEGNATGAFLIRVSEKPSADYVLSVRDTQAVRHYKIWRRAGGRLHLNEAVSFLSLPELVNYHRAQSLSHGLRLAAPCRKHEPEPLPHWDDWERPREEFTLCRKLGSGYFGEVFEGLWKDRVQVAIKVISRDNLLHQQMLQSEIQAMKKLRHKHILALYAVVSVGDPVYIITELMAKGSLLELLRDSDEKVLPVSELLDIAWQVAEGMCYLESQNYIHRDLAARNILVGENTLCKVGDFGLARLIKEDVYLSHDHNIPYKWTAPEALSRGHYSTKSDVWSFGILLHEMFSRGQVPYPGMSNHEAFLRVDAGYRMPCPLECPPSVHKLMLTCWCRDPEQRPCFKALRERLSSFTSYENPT
Serine/threonine-protein kinase BRSK1, sequence (Q8TDC3 whole entry): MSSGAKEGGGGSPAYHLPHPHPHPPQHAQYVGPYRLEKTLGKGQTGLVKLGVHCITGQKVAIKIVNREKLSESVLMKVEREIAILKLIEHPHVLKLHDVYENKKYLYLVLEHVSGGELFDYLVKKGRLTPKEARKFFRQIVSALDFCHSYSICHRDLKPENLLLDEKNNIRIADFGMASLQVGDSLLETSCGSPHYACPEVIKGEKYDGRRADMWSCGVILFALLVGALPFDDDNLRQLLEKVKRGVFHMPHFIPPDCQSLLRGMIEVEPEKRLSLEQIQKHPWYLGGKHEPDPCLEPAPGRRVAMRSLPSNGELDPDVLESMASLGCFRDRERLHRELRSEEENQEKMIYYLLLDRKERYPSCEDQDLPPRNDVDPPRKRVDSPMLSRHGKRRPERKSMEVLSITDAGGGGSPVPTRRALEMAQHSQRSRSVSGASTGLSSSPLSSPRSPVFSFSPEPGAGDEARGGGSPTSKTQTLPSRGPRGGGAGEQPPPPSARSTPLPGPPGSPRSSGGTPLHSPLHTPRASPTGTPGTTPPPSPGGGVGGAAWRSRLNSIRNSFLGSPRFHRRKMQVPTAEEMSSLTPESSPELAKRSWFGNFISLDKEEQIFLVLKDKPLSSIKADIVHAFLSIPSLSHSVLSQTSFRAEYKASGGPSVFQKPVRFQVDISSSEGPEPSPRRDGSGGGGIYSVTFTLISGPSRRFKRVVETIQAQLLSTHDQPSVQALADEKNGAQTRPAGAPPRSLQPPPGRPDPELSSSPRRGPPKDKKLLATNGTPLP
Proto-oncogene tyrosine-protein kinase Src, sequence (P12931 2-536 limits assumed): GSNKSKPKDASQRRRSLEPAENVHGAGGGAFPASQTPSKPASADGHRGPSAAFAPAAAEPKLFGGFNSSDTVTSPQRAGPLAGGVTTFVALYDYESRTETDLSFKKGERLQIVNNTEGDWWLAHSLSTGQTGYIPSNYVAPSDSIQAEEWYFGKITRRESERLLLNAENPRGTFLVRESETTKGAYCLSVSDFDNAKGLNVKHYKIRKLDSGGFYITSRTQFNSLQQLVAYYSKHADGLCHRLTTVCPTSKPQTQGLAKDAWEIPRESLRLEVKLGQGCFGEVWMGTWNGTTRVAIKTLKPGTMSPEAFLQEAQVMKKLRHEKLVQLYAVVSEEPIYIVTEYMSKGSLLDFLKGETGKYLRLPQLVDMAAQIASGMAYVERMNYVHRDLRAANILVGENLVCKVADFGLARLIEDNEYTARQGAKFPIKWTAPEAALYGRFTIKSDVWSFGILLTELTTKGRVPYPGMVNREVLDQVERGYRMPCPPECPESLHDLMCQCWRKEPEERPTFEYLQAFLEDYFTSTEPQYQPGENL
Eukaryotic elongation factor 2 kinase, sequence (O00418 whole entry): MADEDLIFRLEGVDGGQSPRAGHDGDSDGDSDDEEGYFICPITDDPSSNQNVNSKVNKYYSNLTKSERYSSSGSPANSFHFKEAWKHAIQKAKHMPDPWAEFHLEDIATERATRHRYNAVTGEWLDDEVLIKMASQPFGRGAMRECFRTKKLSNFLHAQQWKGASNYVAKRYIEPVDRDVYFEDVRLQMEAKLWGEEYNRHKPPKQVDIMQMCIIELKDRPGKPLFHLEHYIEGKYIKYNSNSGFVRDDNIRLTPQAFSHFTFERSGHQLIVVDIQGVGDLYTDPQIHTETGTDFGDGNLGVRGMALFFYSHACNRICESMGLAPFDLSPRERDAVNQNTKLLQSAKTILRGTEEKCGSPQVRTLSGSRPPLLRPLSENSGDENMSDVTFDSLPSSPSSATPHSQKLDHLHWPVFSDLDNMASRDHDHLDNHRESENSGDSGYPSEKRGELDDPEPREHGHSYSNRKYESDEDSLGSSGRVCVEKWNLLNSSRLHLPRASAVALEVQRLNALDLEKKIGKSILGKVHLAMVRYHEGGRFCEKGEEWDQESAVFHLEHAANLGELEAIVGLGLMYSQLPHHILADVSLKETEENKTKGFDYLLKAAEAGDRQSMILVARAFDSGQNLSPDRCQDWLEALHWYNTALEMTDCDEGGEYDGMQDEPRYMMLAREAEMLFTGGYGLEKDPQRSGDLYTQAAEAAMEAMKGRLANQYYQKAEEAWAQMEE

As for `O=C1C2=[N+]([O-])[C@H]3CCCC[C@H]3[N+]([O-])=C2c2ccccc21`, the results for the IC50 in test [1] and in test [2] were 10200 nM (active) and 2680 nM (active), respectively.
As to `NC1CCC(Nc2nccc(-c3c[nH]c4ncccc34)n2)CC1` (stereo not drawn), the Ki in test [3] is > 3160 nM (inactive); in test [4] it was > 2000 nM (inactive); in test [5], > 2510 nM (inactive); in [6], 3.98 nM (active); in [7], 631 nM (active); in test [8] it was 501 nM (active). Besides, the Ki in test [9] was 5010 nM (active); in test [10] it was 63.1 nM (active); in test [11], 794 nM (active); in test [12], 251 nM (active); in test [13] it was 50.1 nM (active); in test [14], 6.31 nM (active). The Ki was 1260 nM (active) in test [15]; 25.1 nM (active) in test [16]; 794 nM (active) in test [17]; 126 nM (active) in test [18]; 100 nM (active) in test [19]; 5.01 nM (active) in test [20]. Also, the Ki in test [21] was > 1260 nM (inactive).
For the compound `COC(C(=O)N1Cc2[nH]nc(NC(=O)c3ccc(N4CCN(C)CC4)cc3)c2C1)c1ccccc1` (stereo not drawn), the Ki in test [22] was > 7940 nM (inactive); in test [23] it was > 3980 nM (inactive).

By IC50 is commonly meant the concentration that inhibits the measured activity by half. In general, Ki refers to the dissociation constant of the complex between target and ligand, obtained from inhibition or displacement.
